Reference: patent US20230255957A1, “VIRAL ENTRY INHIBITORS AND RNA POLYMERASE INHIBITORS” (SELVA THERAPEUTICS, INC., priority 2020, published 2023)
pEC50: −log10 of the molar value. Several values for one entry are separate records, joined by “and”; a condition that tells them apart may be missing. Equal values may be shown once. Read-outs that look alike come from different tables or passages of the source.

Columns and labels:
[1] = test system: SARS-CoV-2; test: In vitro cytopathogenic effect / EC100 assay, K11777 and Remdesivir, Vero E6; format: cell-based; details: for EC100: compound alone
Procedure: (§1) Controlled in vitro assays were conducted to measure the concentrations of K11777 and Remdesivir in combination required to induce 100% maximal response (EC100) for SARS-CoV-2 activity in the Vero E6 cell line. The concentrations of the combination are also compared to the concentrations required for each compound to achieve the same result individually.
The designation “ND” indicates no cytopathogenic effect was detected. The designation “C” indicates the composition itself caused a cytotoxic effect. The designation “n/a” means no observation was made.

[2] = Cytotoxicity to host cells, Calu-3; format: cell-based; details: human, Calu-3 cells
Procedure: (§2) Controlled […] assays were conducted to measure the half-maximal effective concentration (EC50) of K777 required to prevent entry of SARS-CoV-2 in various cell lines, as well as cytotoxicity to the host cells (CC50).

[3] = test system: SARS-CoV-2; test: Follow up pilot study, viral load in pharyngeal and nasal swabs and BAL; format: in vivo, African Green Monkey
[4] = test system: SARS-CoV-2; test: Initial pilot study, non-human primate model, organ assessment at autopsy; format: in vivo, African Green Monkey; details: 100 mg/kg/day, 7 days, pretreated; autopsy day 7
Procedure: An initial pilot study was conducted to determine the potential for efficacy of K777 against SARS-CoV-2 in a non-human primate model (African Green Monkey). The study included six subjects (N=6), with two controls receiving vehicle only and four receiving K777. Each subject was pretreated with K777 (100 mg/kg) or placebo (control). Each subject was then inoculated with SARS-CoV-2 at […] (3-4 hours after first dose of K777). Each subject was then treated with K777 for 6 additional days (7 days total) (100 mg/kg/day). Each subject was then sacrificed and an autopsy was performed at day 7. During the study, daily measurement of viral titers was performed via BAL, nasal swabs, and pharyngeal swabs. During autopsy, organ assessment was performed. The results are shown in Table 2.1 below and depicted in FIG. 4.

[5] = test system: SARS-CoV-2; test: Follow up pilot study, non-human primate model, organ assessment at autopsy; format: in vivo, African Green Monkey; details: for Lung weight % of weight / Lung weight Left lobe / Lung weight Right lobe / Lung weight Total: 7 days, autopsy day 7
Procedure: Following the initial pilot study, a follow up pilot study was conducted to further explore the potential for efficacy of K777 against SARS-CoV-2 in a non-human primate model (African Green Monkey). The study included eight subjects (N=8), with two controls and six receiving K777. Unlike in the initial pilot, in this follow-up pilot no subjects were pretreated with K777. Each subject was inoculated with SARS-CoV-2 for 8 hours. Each subject was then treated with K777 for 7 days (33 mg/kg/day (n=3) or 100 mg/kg/day (n=3)) or placebo (n=2). Each subject was then sacrificed, and an autopsy was performed at day 7. During the study, measurements of viral load were determined from serial nasal and pharyngeal swabs as well as brochoalveolar fluid (BAL) samples. During autopsy, organ assessment was performed. The results are shown in Tables 2.2, 2.3, 2.4 and 2.5 below and depicted in FIGS. 5 to 12. FIGS. 7 to 10 depict histological slides of lung tissue taken from the subjects in the follow up pilot study after completion of the study. FIG. 6 depicts histological slides of lung tissue taken from a normal human lung and from a human lung with diffuse alveolar damage (DAD) for comparison. In FIGS. 7 to 10, NB numbers are subject identifiers. In FIGS. 8 to 10, “RL” means right lung and “LL” means left lung. FIG. 11 depicts the histopathology shown in FIGS. 8 to 10 in one chart for side-by-side comparison. FIG. 12 depicts viral load for each group on day 1 and day 7 of the follow up pilot study.

[6] = Cytotoxicity to host cells, A549/ACE2; format: cell-based; details: human
Procedure: as §2

[7] = test system: SARS-CoV-2; test: microbe, parasite or virus in culture; format: cell-based; details: read-out: Inhibition of Viral Infectivity EC50
[8] = Cytotoxicity to host cells, Vero E6; format: cell-based; details: African green monkey
Procedure: as §2

[9] = Cytotoxicity to host cells, HeLa/ACE2; format: cell-based; details: human
Procedure: as §2

[10] = test system: SARS-CoV-2; test: In vitro cytopathogenic effect / EC100 assay, K11777 and EIDD-1931, Vero E6; format: cell-based; details: for EC100: compound alone
Procedure: as §1, with “EIDD-1931” for “Remdesivir”
Table 4 is split into two portions (a) and (b) above to accommodate page size. The first columns of 4(a) and (b) show concentration values from 10 μM (micromolar) to 0.078 μM. […] The designation “ND” indicates no cytopathogenic effect was detected.

[11] = conc 0.1 μM (of K11777 in combinations)
[12] = conc 0.3 μM (of K11777 in combinations)
[13] = conc 1 μM (of K11777 in combinations)
[14] = African Green Monkey, SARS-CoV-2
[15] = conc 0.078 uM (of K777 in combinations), Vero E6
[16] = conc 0.3125 uM (of K777 in combinations), Vero E6

SMILES: CN1CCN(C(=O)N[C@@H](Cc2ccccc2)C(=O)N[C@H](/C=C/S(=O)(=O)c2ccccc2)CCc2ccccc2)CC1 [K777]
- EC100 [1]: 1 µM
- cytopathogenic effect [1, 11]: CPE
- cytopathogenic effect [1, 12]: CPE
- cytopathogenic effect [1, 13]: CPE
- CC50 [2]: > 10 µM
- Viral Load -- Subgenomic E ([3]; 30 mg/kg/day, BAL, d5): 3.69E+04 Eq. VC/mL
- Viral Load -- Subgenomic E ([3]; 30 mg/kg/day, Nasal, d3): 1.62E+06 Eq. VC/mL
- Viral Load -- Subgenomic E ([3]; 30 mg/kg/day, Nasal, d5): 2.07E+04 Eq. VC/mL and 1.91E+04 Eq. VC/mL
- Viral Load -- Genomic N1 ([3]; 30 mg/kg/day, Phary, d3): 1.11E+09 Eq. VC/mL and 1.87E+09 Eq. VC/mL
- Viral Load -- Genomic N1 ([3]; 100 mg/kg/day, BAL, d1): 3.38E+08 Eq. VC/mL and 2.69E+08 Eq. VC/mL
- Viral Load -- Subgenomic E ([3]; 100 mg/kg/day, BAL, d3): 2.45E+06 Eq. VC/mL and 1.58E+06 Eq. VC/mL
- Viral Load -- Subgenomic N ([3]; 100 mg/kg/day, BAL, d3): 1.31E+07 Eq. VC/mL and 7.93E+06 Eq. VC/mL
- Viral Load -- Subgenomic N ([3]; 100 mg/kg/day, BAL, d7): 1.40E+05 Eq. VC/mL
- Viral Load -- Subgenomic E ([3]; 100 mg/kg/day, Nasal, d3): 7.94E+07 Eq. VC/mL
- Viral Load -- Subgenomic N ([3]; 100 mg/kg/day, Nasal, d7): 4.19E+06 Eq. VC/mL
- Viral Load -- Subgenomic E ([3]; 100 mg/kg/day, Phary, d3): 3.34E+07 Eq. VC/mL and 2.04E+07 Eq. VC/mL and 3.29E+07 Eq. VC/mL
- Viral Load -- Subgenomic N ([3]; 100 mg/kg/day, Phary, d7): 3.64E+07 Eq. VC/mL and 5.51E+07 Eq. VC/mL
- viral load as compared to the vehicle [3, 14]: significantly reduced viral load as compared to the vehicle
- Lung weight % of weight [4]: 0.52% and 0.49% and 0.51% and 0.58%
- Lung weight Left lobe [4]: 13.06 g and 12.79 g and 19.06 g and 21.72 g
- Lung weight Right lobe [4]: 17.22 g and 16.99 g and 14.43 g and 16.84 g
- Lung weight Total [4]: 30.28 g and 29.78 g and 33.49 g and 38.56 g
- Lymph enlargement [4]: 2 fold and 2.5 fold
- Lung weight % of weight ([5]; 33 mg/kg/day): 0.66% and 0.95% and 0.54%
- Lung weight Left lobe ([5]; 33 mg/kg/day): 24 g and 28 g and 17 g
- Lung weight Right lobe ([5]; 33 mg/kg/day): 20 g and 28 g and 24 g
- Lung weight Total ([5]; 33 mg/kg/day): 44 g and 56 g and 41 g
- Lung weight % of weight ([5]; 100 mg/kg/day): 0.50% and 0.46% and 0.56%
- Lung weight Left lobe ([5]; 100 mg/kg/day): 14 g and 15 g
- Lung weight Right lobe ([5]; 100 mg/kg/day): 18 g and 19 g
- Lung weight Total ([5]; 100 mg/kg/day): 32 g and 33 g and 34 g
- lung damage (histopathology) [5, 14]: protected the lung against diffuse alveolar damage (DAD) and ARDS-like lung damage
- lung to body weight ratios ([5]; both pilot studies): able to maintain normal lung to body weight ratios
- CC50 [6]: > 10 µM
- pEC50 ([7]; Severe acute respiratory syndrome coronavirus 2, A549-ACE2, A549/ACE2): > 7.10
- pEC50 ([7]; Severe acute respiratory syndrome coronavirus 2, Calu-3, Calu-3): 5.30 to 5.52
- pEC50 ([7]; Severe acute respiratory syndrome coronavirus 2, HeLa-ACE2, HeLa/ACE2): 8.40
- CC50 [8]: > 10 µM
- CC50 [9]: > 10 µM
- EC100 ([10]; Vero E6): 2.5 µM
- cytopathogenic effect [10, 15]: CPE
- cytopathogenic effect ([10]; conc 0.156 uM (of K777 in combinations), Vero E6): CPE
- cytopathogenic effect [10, 16]: CPE
- cytopathogenic effect ([10]; conc 0.625 uM (of K777 in combinations), Vero E6): CPE
- cytopathogenic effect ([10]; conc 1.25 uM (of K777 in combinations), Vero E6): CPE

SMILES: CCC(CC)COC(=O)[C@H](C)N[P@](=O)(OC[C@H]1O[C@@](C#N)(c2ccc3c(N)ncnn23)[C@H](O)[C@@H]1O)Oc1ccccc1 [Remdesivir]
- EC100 [1]: 3 µM
- cytopathogenic effect ([1]; conc 0.01 μM (of K11777 in combinations)): CPE
- cytopathogenic effect ([1]; conc 0.03 μM (of K11777 in combinations)): CPE
- cytopathogenic effect [1, 11]: CPE
- cytopathogenic effect [1, 12]: CPE
- cytopathogenic effect [1, 13]: CPE
- cytopathogenic effect ([1]; conc 3 μM (of K11777 in combinations)): CPE

SMILES: O=c1[nH]/c(=N\O)ccn1[C@@H]1O[C@H](CO)[C@@H](O)[C@H]1O [EIDD-1931, Beta-d-N4-hydroxycytidine, reference compound]
- cytopathogenic effect [10]: CPE
- EC100 ([10]; Vero E6): 5 µM
- cytopathogenic effect [10, 15]: CPE
- cytopathogenic effect [10, 16]: CPE
- cytopathogenic effect ([10]; conc 2.5 uM (of K777 in combinations), Vero E6): CPE
